Where two headings read alike, the source gives them in different places.
Experiments:
[1] = system: NK92 NK cells; test: NK cell migration transwell assay; type: cell-based; conditions: IL-15 stimulated NK92 cells, 3 hours
Method: (§1) FIG. 3A-E: Tofacitinib reduces NK cell activity and cytotoxicity. (A) NK cells (NK92 cell line) were treated with tofacitinib either after 30 ng/ml of IL-15 activation overnight (ON) or before IL-15 activation (2-hours) to test its efficacy in inhibiting already activated NK cells (overnight stimulation) or preventing their activation (2-hour stimulation). (B) NK cells cultured Overnight or 2 Hrs with IL-15 were lysed and cytokine expression assessed using qPCR. IL-10, TNF-α, and IFN-γ gene expression was assessed. (C) Intracellular granzyme B and perforin were levels were assessed in NK cells in vitro using flow cytometry. […] (D) NK cell migration was assessed using a transwell assay. […] A chemoattractant (serum or CCL13) was placed on the other side of the transwell and after 3 hours the fluorescent intensity in the chemoattractant half of the well was assessed. (E) NK cytotoxicity was measured using a K562 co-culture assay. […] Cells were then stained with a viability dye and analyzed using flow cytometry. […]
(§2) Experiments were conducted to assess the impact on NK cell migration following tofacitinib treatment (FIG. 3D). […] NK cell chemoattractants (serum or CCL13) were then placed in the other half of the well and the number of NK cells which traversed the membrane were measured. […] Cells were collected, stained with a viability dye, and analyzed using flow cytometry. […]

[2] = system: NK cells, CD4 T cells; conditions: cited from earlier work
[3] = system: peripheral NK cells; conditions: human patients; van Vollenhoven et al. 2019, van Gurp et al. 2008; cited from earlier work
[4] = system: peripheral NK cells; conditions: mice; Shimaoka et al. 2017; cited from earlier work
[5] = system: NK92 NK cell line; test: Intracellular granzyme B and perforin levels in NK cells by flow cytometry; type: cell-based
Method: FIG. 3A-E: Tofacitinib reduces NK cell activity and cytotoxicity. (A) NK cells (NK92 cell line) were treated with tofacitinib either after 30 ng/ml of IL-15 activation overnight (ON) or before IL-15 activation (2-hours) to test its efficacy in inhibiting already activated NK cells (overnight stimulation) or preventing their activation (2-hour stimulation). (B) NK cells cultured Overnight or 2 Hrs with IL-15 were lysed and cytokine expression assessed using qPCR. IL-10, TNF-α, and IFN-γ gene expression was assessed. (C) Intracellular granzyme B and perforin were levels were assessed in NK cells in vitro using flow cytometry. Fluorescent intensity was plotted for unstimulated NK cells in serum free conditions (negative control; blue), serum-stimulated NK cells (positive control; red), IL-15 stimulated NK cells (30 ng/ml IL-15; orange), or tofacitinib treated NK cells (30 ng/ml IL-15+ tofacitinib; green). (D) NK cell migration was assessed using a transwell assay. NK92 cells were fluorescently labeled and placed on one side of a well separated by a porous membrane. A chemoattractant (serum or CCL13) was placed on the other side of the transwell and after 3 hours the fluorescent intensity in the chemoattractant half of the well was assessed. (E) NK cytotoxicity was measured using a K562 co-culture assay. […] Cells were then stained with a viability dye and analyzed using flow cytometry. […]

[6] = system: NK92 NK cells co-cultured with K562 cancer cells; test: NK cytotoxicity K562 co-culture assay; type: cell-based; conditions: 4:1 NK:K562 ratio overnight; even following overnight IL-15 stimulation
Method: as §1, §2

[7] = system: NK92 NK cell line; test: Cytokine gene expression by qPCR in IL-15 stimulated NK92 cells; type: cell-based; conditions: 30 ng/ml IL-15, tofacitinib treatment (Overnight IL-15) or pre-treatment (2 Hr IL-15)
Method: as §1
To test this possibility, experiments were conducted that utilized the well-characterized NK92 NK cell line to assess tofacitinib's impact on NK cell activation and cytotoxicity in vitro. […] First, NK cells from these two conditions were collected, lysed, and cytokine expression gene expression was assessed using qPCR (FIG. 3B).

For `C[C@@H]1CCN(C(=O)CC#N)C[C@@H]1N(C)c1ncnc2[nH]ccc12` [tofacitinib], the “NK cell migration in response to CCL13” value ([1]; CCL13 as chemoattractant) is given as “more robust suppression”, the “NK cell migration in response to serum” value ([1]; serum as chemoattractant) is given as “modest reduction” and the NK cell levels ([2]; Hodge et al. 2016, van Gurp et al. 2008) is given as “reduced in a dose dependent manner”. For the same compound, the “CD4 T cell levels” value ([2]; van Gurp et al. 2008) was “maintaining”, the “peripheral NK cells” value [3] was “capable of reducing” and the “peripheral NK cells” value [4] was “capable of reducing”. The intracellular perforin levels ([5]; NK cells stimulated with IL-15, particularly when treated with tofacitinib prior to IL-15 stimulation) was “reduced”, the “intracellular granzyme B levels” value ([5]; NK cells stimulated with IL-15 overnight or for two hours, flow cytometry) was “modest effect” and the “NK cell-mediated killing (K562 survival)” value [6] was “ameliorated”. The IFN-γ gene expression [7] was “significantly reduced” and the IL-10 gene expression [7] was “significantly reduced”.

Reference: patent US11452724B2, “Methods for treating amyotrophic lateral sclerosis” (The Regents of the University of Michigan, priority 2018, dated 2022)
